Results taken from patent publication US20240199571A1, “THIOPHENE COMPOUND AND APPLICATION THEREOF” (MEDSHINE DISCOVERY INC., priority 2021, published 2024).
pIC50: −log10 of the molar value. Structures can show the parent of a compound that is named as a salt.

Key:
[1] = biological target: hERG potassium ion channels (Homo sapiens (Human), UniProt Q12809); assay: Experiment 4: hERG potassium ion channel inhibition, automated patch clamp (Qpatch), CHO-hERG cells; assay type: cell-based; conditions: highest test concentration 40 μM
Experimental: Experiment 4: hERG Potassium Ion Channel Inhibition Assay
Experimental purpose: To test the effects of the test examples on hERG potassium ion channels using an automated patch clamp method.
4.1.1 CHO-hERG cells were cultured in a 175 cm^2 culture flask. When the cell density grew from 60% to 80%, the culture medium was removed. The cells were washed once with 7 mL of PBS (Phosphate Buffered Saline), and then 3 mL of Detachin cell dissociation reagent was added thereto for digestion.
4.1.2 After the digestion was completed, 7 mL of culture medium was added thereto for neutralization, then the mixture was centrifuged, the supernatant was aspirated, and then 5 mL of culture medium was added thereto for resuspension to ensure a cell density of 2×10^6/mL to 5×10^6/ML.
The single-cell high-resistance sealing and whole-cell modeling formation processes were all automatically completed by the Qpatch instrument of the Shanghai Institute of Materia Medica, Chinese Academy of Sciences. After obtaining the whole-cell recording modeling, the cells were clamped at −80 mV, and before a 5-second +40 mV depolarizing stimulus was given, a 50-millisecond −50 mV prepulse was first given, then the voltage was repolarized to −50 mV and holden for 5 seconds, and finally returned to −80 mV. This voltage stimulus was applied every 15 seconds, recorded for 2 minutes, and then the extracellular fluid was recorded for 5 minutes, and then the administration process was initiated, with compound concentrations starting at the lowest test concentration. The voltage stimulus was given for 2.5 minutes for each test concentration, and after all concentrations had been continuously given, 3 μM the positive control compound, Cisapride, was given. At least 3 cells were tested per concentration (n≥3).
4.4.1 The compound stock solution was diluted with DMSO, and 20 μL of DMSO solution was added with 10 μL of the compound stock solution, and serially diluted 3-fold to 6 DMSO concentrations.
4.4.2 4 μL of 6 DMSO concentrations of compounds were taken respectively and added to 396 μL of extracellular fluid, and the mixture was diluted 100-fold to 6 intermediate concentrations, then 80 μL of 6 intermediate concentrations of compounds was taken and added to 320 μL of extracellular fluid, and the mixture was diluted 5-fold to the final test concentration.
4.4.3 The highest test concentration was 40 μM, and the concentrations were respectively 40, 13.3, 4.4, 1.48, 0.494, and 0.165 μM for a total of six concentrations.
4.4.5 The preparation of the compound was completed by the Bravo instrument throughout the dilution process.
Experimental data were analyzed by GraphPad Prism 5.0 software.

NCI-H1417 cells = assay: Experiment 2: inhibition of NCI-H1417 cell proliferation (CellTiter-Glo, 10 days); assay type: cell-based; conditions: Homo sapiens, 240 h, 10 days incubation
Experimental: Experiment 2: Evaluation of Inhibitory Activity on NCI-H1417 Cell Proliferation
Experimental purpose: To test the inhibitory activity of test compounds on NCI-H1417 cell proliferation.
Experimental materials: RPMI 1640 medium, fetal bovine serum, Promega CellTiter-Glo reagent. The NCI-H1417 cell line was purchased from ATCC. Envision multilabel plate reader (PerkinElmer).
Experimental method: The compounds were dissolved to 10 mM and 5-fold diluted with DMSO in the compound plates, starting with a concentration of 2 mM. 3-fold serial dilution was performed with Bravo to 10 concentrations. Then 250 nL of the compound solution was transferred to the upper and lower double duplicate wells of a blank 384 cell plate with Echo. To each well containing the transferred 250 nL of DMSO/compound was added a cell suspension of 1000 cells/50 μL per well, and the compound was diluted 200-fold, i.e., resulting in an initial working concentration of 10 μM. The cell plate was incubated in a carbon dioxide incubator for 10 days. To the cell plate was added 25 μL of Promega CellTiter-Glo reagent per well and the mixture was shaken for 10 minutes at room temperature to stabilize the luminescence signal. Readings were performed on a PerkinElmer Envision multilabel plate reader.
Data analysis: Raw data were converted into inhibition rate using the formula: (Max−Ratio)/(Max−Min)*100%. The IC50 values could then be derived from four-parameter curve fitting. (derived from 205 mode in XLFIT5, iDBS)
The compounds were tested for inhibitory activity of compounds on NCI-H1417 cell proliferation, and the results are shown in Table 3.

human LSD1 = human LSD1 (Homo sapiens (Human), UniProt O60341); assay: Experiment 1B: in vitro LSD1 enzyme activity, enzyme-coupled fluorescence (HRP/Amplex Red), H3(1-21)K4me2 peptide 10 μM (Reaction Biology); assay type: biochemical; conditions: histone H3(1-21)K4me2 peptide 10 μM
Experimental: Experiment 1B: Evaluation of Enzyme Activity
Testing unit: Reaction Biology Corp., USA.
The purpose of the assay was to test the in vitro inhibitory activity of the compounds against LSD1. The enzyme used in the assay was human LSD1, and the standard substrate was histone H3(1-21)K4me2 peptide (10 μM). The activity of the compounds was determined by the enzyme-coupling fluorescent method by the combined detection of H2O2 generated after the reaction of LSD1 by horseradish peroxidase (HRP) and the fluorescent reagent Amplex Red. Starting from 10 μM, the compounds were 3-fold diluted to detect the IC50 values of the compounds at 10 concentrations. The enzyme and substrate were incubated for 30 minutes before the compound was added to the substrate to start the reaction. Fluorescence detector: EnVision, excitation wavelength: Ex/Em=535/590 nM.

[2] = Experiment 3: pharmacokinetic evaluation in CD-1 mice (IV and oral); assay type: in vivo; conditions: mouse, plasma, male CD-1 mice
Experimental: Experiment 3: Pharmacokinetic Evaluation of Compounds
Experimental purpose: To test the pharmacokinetics of compounds in CD-1 mice in vivo
CD-1 mice (male/female, 7 to 9 weeks old, Shanghai SLAC)
The pharmacokinetic characteristics of the compounds in rodents after intravenous injection and oral administration were tested according to the standard protocol. In the experiment, the candidate compound was formulated into clear solutions, and a single intravenous injection and oral administration were given to mice. The vehicle for intravenous injection and oral administration was a mixed vehicle composed of 10% dimethyl sulfoxide and 90% hydroxypropyl β-cyclodextrin with a content of 10%. In this project, four male/female CD-1 mice were used. Two mice were injected intravenously at a dose of 1 mg/kg, and plasma samples were collected at 0.083, 0.25, 0.5, 1, 2, 4, 8, and 24 hours after administration; the other two were administered orally by gavage at a dose of 2 mg/kg, and plasma samples were collected at 0.25, 0.5, 1, 2, 4, 8, and 24 hours after administration. The samples were centrifuged at 3200 g for 10 minutes at 4° C., and plasma samples were obtained by separating the supernatant. A methanol solution containing internal standard with 20 times the volume of the sample was added thereto to precipitate the protein, and the mixture was centrifuged at 12000 g for 15 minutes at 4° C. 50 μL of the supernatant was taken and transferred to a 96-well plate and centrifuged again. The supernatant was taken for sampling. The plasma concentration was quantitatively analyzed using LC-MS/MS analysis method, and pharmacokinetic parameters, such as peak concentration (Cmax), clearance rate (CL), half-life (T1/2), volume of distribution at steady state (Vdss), area under drug-time curve (AUC0-last), bioavailability (F).

Chain of hERG potassium ion channels (Q12809 whole entry): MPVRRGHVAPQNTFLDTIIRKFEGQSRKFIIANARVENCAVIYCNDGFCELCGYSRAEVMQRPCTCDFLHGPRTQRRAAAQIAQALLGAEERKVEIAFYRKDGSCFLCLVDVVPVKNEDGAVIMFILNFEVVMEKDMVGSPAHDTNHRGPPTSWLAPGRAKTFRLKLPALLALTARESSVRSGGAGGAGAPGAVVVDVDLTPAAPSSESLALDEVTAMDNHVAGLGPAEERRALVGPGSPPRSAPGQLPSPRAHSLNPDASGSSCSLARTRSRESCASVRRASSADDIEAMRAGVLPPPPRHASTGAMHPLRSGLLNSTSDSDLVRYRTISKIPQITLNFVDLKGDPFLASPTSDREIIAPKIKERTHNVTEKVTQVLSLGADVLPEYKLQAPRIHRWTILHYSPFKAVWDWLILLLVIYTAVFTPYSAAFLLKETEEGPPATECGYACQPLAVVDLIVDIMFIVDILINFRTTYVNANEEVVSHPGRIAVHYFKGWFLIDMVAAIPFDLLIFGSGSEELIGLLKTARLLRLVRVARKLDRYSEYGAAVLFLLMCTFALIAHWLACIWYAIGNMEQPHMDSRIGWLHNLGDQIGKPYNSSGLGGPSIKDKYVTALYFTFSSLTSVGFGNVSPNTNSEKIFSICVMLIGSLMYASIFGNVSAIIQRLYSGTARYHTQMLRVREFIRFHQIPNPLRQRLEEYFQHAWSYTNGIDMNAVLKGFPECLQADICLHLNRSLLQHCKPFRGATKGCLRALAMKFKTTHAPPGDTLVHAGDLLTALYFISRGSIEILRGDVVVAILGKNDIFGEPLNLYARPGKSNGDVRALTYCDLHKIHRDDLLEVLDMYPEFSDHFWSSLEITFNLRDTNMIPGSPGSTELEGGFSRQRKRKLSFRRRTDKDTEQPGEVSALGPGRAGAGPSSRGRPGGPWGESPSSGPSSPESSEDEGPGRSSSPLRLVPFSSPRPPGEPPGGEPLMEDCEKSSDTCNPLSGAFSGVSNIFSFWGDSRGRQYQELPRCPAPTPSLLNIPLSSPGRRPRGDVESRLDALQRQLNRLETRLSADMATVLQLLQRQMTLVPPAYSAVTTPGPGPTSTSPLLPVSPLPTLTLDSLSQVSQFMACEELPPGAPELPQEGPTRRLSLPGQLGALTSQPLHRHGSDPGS

| Compound | pIC50 [1] | pIC50 (NCI-H1417 cells) | pIC50 (human LSD1) | also measured |
| --- | --- | --- | --- | --- |
| CC(C)(O)Cn1cc2cc(-c3sc(C(=O)N4CCC[C@@H](N)C4)cc3-c3ccc(C#N)c(F)c3)cnc2n1 [Compound 61] | < 4.40 | – | – | – |
| N#Cc1ccc(-c2cc(C(=O)N3CCC[C@@H](N)C3)sc2-c2ccc3nncn3c2)cc1F [Compound 67] | < 4.40 | – | – | – |
| N#Cc1ccc(-c2cc(C(=O)N3CCC[C@@H](N)C3)sc2-c2ccc3nn(C4COC4)cc3c2)cc1F [Compound 70] | 4.73 | 8.01 | – | – |
| N#Cc1ccc(-c2cc(C(=O)N3CCC[C@@H](N)C3)sc2-c2ccn3cnnc3c2)cc1F [Compound 76] | < 4.40 | – | – | – |
| N#Cc1ccc(-c2cc(C(=O)N3CCC[C@@H](N)C3)sc2-c2ccc3oncc3c2)cc1F [Compound 77] | < 4.40 | – | – | – |
| CC1(O)CN(C(=O)c2ccc(-c3sc(C(=O)N4CCC[C@@H](N)C4)cc3-c3ccc(C#N)c(F)c3)cc2)C1 [Compound 81] | < 4.40 | – | – | – |
| N#Cc1ccc(-c2cc(C(=O)N3CCC[C@@H](N)C3)sc2-c2ccc(OCC(=O)O)c(F)c2)cc1F [Hydrochloride of compound 30] | < 4.40 | – | 6.91 | – |
| Cn1cc(-c2sc(C(=O)N3CCC[C@@H](N)C3)cc2-c2ccc(C#N)c(F)c2)ccc1=O [Hydrochloride of compound 32] | < 4.40 | – | – | – |
| N#Cc1ccc(-c2cc(C(=O)N3CCC[C@@H](N)C3)sc2-c2cnc(N)nc2)cc1F [Hydrochloride of compound 45] | 4.49 | – | – | – |
| COC1CC(n2cc3cc(-c4sc(C(=O)N5CCC[C@@H](N)C5)cc4-c4ccc(C#N)c(F)c4)ccc3n2)C1 (some centres unmarked) [Hydrochloride of compound 80] | – | 7.79 | 7.69 | clearance ([2]; IV 1 mg/kg, read-out: Clearance rate CL): 33.7 mL/min/kg; half-life ([2]; IV 1 mg/kg, read-out: Half life T1/2 (IV, h) (converted)): 1.93 h; Vd ([2]; IV 1 mg/kg, read-out: Volume of distribution at steady state Vdss): 4.89 L/kg; bioavailability ([2]; PO 2 mg/kg vs IV 1 mg/kg, read-out: Bioavailability F (%)): 31.9%; AUC(0-t) ([2]; PO 2 mg/kg, read-out: Area under drug-time curve AUC0-last PO): 0.576 µM·h; Cmax ([2]; single dose, oral 2 mg/kg, read-out: Peak concentration Cmax): 109 nM |
| N#Cc1ccc(-c2cc(C(=O)N3CCC[C@@H](N)C3)sc2-c2cc3cn(CC4(O)CCC4)nc3cc2F)cc1F [Hydrochloride of compound 95] | – | 8.60 | 8.00 | – |
| N#Cc1ccc(-c2cc(C(=O)N3CCC[C@@H](N)C3)sc2-c2ccc(N3CC[C@H](O)C3)c(F)c2)cc1F [Hydrochloride of compound 96] | – | 8.32 | 7.69 | – |
| N#Cc1ccc(-c2cc(C(=O)N3CCC[C@@H](N)C3)sc2-c2cc3nnn([C@H]4COCC[C@@H]4O)c3c(F)c2F)cc1F [Hydrochloride of compound 97] | – | 8.02 | 7.60 | – |
| N#Cc1ccc(-c2cc(C(=O)N3CCCNCC3)sc2-c2cc3nnn(CC4(O)CCC4)c3c(F)c2F)cc1F [Hydrochloride of compound 100] | – | 9.43 | 7.85 | – |
| N#Cc1ccc(-c2cc(C(=O)N3CCC[C@@H](N)C3)sc2-c2ccc(N3CC[C@@H](O)C3)c(F)c2)cc1F [Hydrochloride of compound 101] | – | 8.47 | 7.54 | – |
| CC(C)(CO)n1cc2cc(-c3sc(C(=O)N4CCCNCC4)cc3-c3ccc(C#N)c(F)c3)ccc2n1 [Hydrochloride of compound 102] | – | 7.50 | 7.24 | – |
| CC(C)(CO)n1nnc2cc(-c3sc(C(=O)N4CCCNCC4)cc3-c3ccc(C#N)c(F)c3)c(F)c(F)c21 [Hydrochloride of compound 103] | – | 7.86 | 7.67 | – |
| CN[C@@H]1CCCN(C(=O)c2cc(-c3ccc(C#N)c(F)c3)c(-c3ccc4nn(C(C)(C)CO)cc4c3)s2)C1 [Hydrochloride of compound 104] | – | 8.32 | 7.78 | – |
| N#Cc1ccc(-c2cc(C(=O)N3CCC[C@@H](N)C3)sc2-c2ccc(N3CC[C@H](O)C3)cc2)cc1F [Hydrochloride of compound 107] | – | 8.48 | 7.82 | – |
| CN[C@@H]1CCCN(C(=O)c2cc(-c3ccc(C#N)c(F)c3)c(-c3ccc(N4CC[C@@H](O)C4)cc3)s2)C1 [Hydrochloride of compound 109] | – | 8.69 | 7.97 | – |
| N#Cc1ccc(-c2cc(C(=O)N3CCC[C@@H](N)C3)sc2-c2ccc(N3CC[C@@H](O)C3)cc2)cc1F [Hydrochloride of compound 110] | – | 8.46 | 8.01 | – |
| N#Cc1ccc(-c2cc(C(=O)N3CCC[C@@H](N)C3)sc2-c2ccc(N3CC[C@@H](O)C3)cc2F)cc1F [Hydrochloride of compound 112] | – | 8.30 | 8.23 | – |
| N#Cc1ccc(-c2cc(C(=O)N3CCCNCC3)sc2-c2ccc(N3CC[C@@H](O)C3)cc2)cc1F [Hydrochloride of compound 117] | – | 7.40 | 7.72 | – |
| CC1(O)CN(c2ccc(-c3sc(C(=O)N4CCC[C@@H](N)C4)cc3-c3ccc(C#N)c(F)c3)cc2)C1 [Hydrochloride of compound 118] | – | 7.50 | 7.86 | – |
| CC(C)(O)CNc1ccc(-c2sc(C(=O)N3CCC[C@@H](N)C3)cc2-c2ccc(C#N)c(F)c2)cc1F [Hydrochloride of compound 119] | – | 8.04 | 7.75 | – |
| N#Cc1ccc(-c2cc(C(=O)N3CCC[C@@H](N)C3)sc2-c2ccc(NCC3(O)CCC3)c(F)c2)cc1F [Hydrochloride of compound 120] | – | 7.76 | 8.03 | – |
| Cn1nc2ccc(-c3sc(C(=O)N4CCC[C@@H](N)C4)cc3-c3ccc(C#N)c(F)c3)cc2c1F [Hydrochloride of compound 123] | – | 8.20 | 7.57 | – |
